Test results published in the NIST ThermoML archive (doi:10.1016/j.jct.2015.05.001).
Several values for one entry are separate records, joined by “and”; a condition that tells them apart may be missing. Equal entries are not always repeated. Numbers after ± are expanded uncertainties.

Key:
[1] = Molar enthalpy of transition or fusion; details: Crystal; DSC
[2] = for Triple point temperature: DTA

Brc1ccc2c(c1)Cc1ccccc1-2 [2-bromofluorene]
Details	Molar enthalpy of transition or fusion [kcal/mol]
[1]	4.07 ± 0.098

[2]
Details	vapor or sublimation pressure
327.17 K, Crystal, Calculated from knudsen effusion weight loss	0.000118 ± 2e-05 kPa and 0.000119 ± 2e-05 kPa
329.13 K, Crystal, Calculated from knudsen effusion weight loss	0.00015 ± 2.1e-05 kPa and 0.000148 ± 2.1e-05 kPa
331.09 K, Crystal, Calculated from knudsen effusion weight loss	0.000186 ± 2.1e-05 kPa and 0.000183 ± 2.1e-05 kPa
333.16 K, Crystal, Calculated from knudsen effusion weight loss	0.000223 ± 2.2e-05 kPa and 0.000225 ± 2.2e-05 kPa and 0.000229 ± 2.2e-05 kPa
335.14 K, Crystal, Calculated from knudsen effusion weight loss	0.00028 ± 2.2e-05 kPa and 0.000275 ± 2.2e-05 kPa and 0.000279 ± 2.2e-05 kPa
337.11 K, Crystal, Calculated from knudsen effusion weight loss	0.000347 ± 2.3e-05 kPa and 0.000346 ± 2.3e-05 kPa and 0.000343 ± 2.3e-05 kPa
339.16 K, Crystal, Calculated from knudsen effusion weight loss	0.000417 ± 2.5e-05 kPa and 0.000416 ± 2.5e-05 kPa and 0.000425 ± 2.5e-05 kPa
341.14 K, Crystal, Calculated from knudsen effusion weight loss	0.000515 ± 2.7e-05 kPa and 0.000501 ± 2.7e-05 kPa
343.1 K, Crystal, Calculated from knudsen effusion weight loss	0.000627 ± 3e-05 kPa and 0.000626 ± 3e-05 kPa and 0.000634 ± 3e-05 kPa
345.16 K, Crystal, Calculated from knudsen effusion weight loss	0.000749 ± 3.3e-05 kPa and 0.000747 ± 3.3e-05 kPa and 0.000758 ± 3.3e-05 kPa
347.09 K, Crystal, Calculated from knudsen effusion weight loss	0.000928 ± 3.8e-05 kPa and 0.000929 ± 3.9e-05 kPa and 0.000909 ± 3.8e-05 kPa
349.09 K, Crystal, Calculated from knudsen effusion weight loss	0.00112 ± 8.9e-05 kPa and 0.001125 ± 8.9e-05 kPa and 0.001127 ± 9e-05 kPa
350.8 K, Crystal, Closed cell (Static) method	0.001323 ± 0.00013 kPa
352.79 K, Crystal, Closed cell (Static) method	0.001593 ± 0.00014 kPa
354.74 K, Crystal, Closed cell (Static) method	0.001921 ± 0.00014 kPa
356.73 K, Crystal, Closed cell (Static) method	0.002274 ± 0.00015 kPa
358.7 K, Crystal, Closed cell (Static) method	0.002726 ± 0.00016 kPa
360.67 K, Crystal, Closed cell (Static) method	0.003206 ± 0.00018 kPa
362.65 K, Crystal, Closed cell (Static) method	0.003848 ± 0.00019 kPa
364.63 K, Crystal, Closed cell (Static) method	0.00452 ± 0.00022 kPa
366.6 K, Crystal, Closed cell (Static) method	0.005367 ± 0.00024 kPa
368.56 K, Crystal, Closed cell (Static) method	0.006271 ± 0.00028 kPa
370.56 K, Crystal, Closed cell (Static) method	0.007492 ± 0.00032 kPa
372.53 K, Crystal, Closed cell (Static) method	0.008716 ± 0.00036 kPa
374.47 K, Metastable liquid, Closed cell (Static) method	0.012 ± 0.00049 kPa
374.5 K, Crystal, Closed cell (Static) method	0.0103 ± 0.00042 kPa
376.47 K, Crystal, Closed cell (Static) method	0.01202 ± 0.00049 kPa
376.47 K, Metastable liquid, Closed cell (Static) method	0.01362 ± 0.00053 kPa
378.44 K, Crystal, Closed cell (Static) method	0.01403 ± 0.00054 kPa
378.44 K, Metastable liquid, Closed cell (Static) method	0.01541 ± 0.00056 kPa
380.4 K, Crystal, Closed cell (Static) method	0.01634 ± 0.00057 kPa
380.4 K, Metastable liquid, Closed cell (Static) method	0.01749 ± 0.00059 kPa
382.39 K, Metastable liquid, Closed cell (Static) method	0.01992 ± 0.00062 kPa
384.36 K, Metastable liquid, Closed cell (Static) method	0.02244 ± 0.00066 kPa
386.34 K, Metastable liquid, Closed cell (Static) method	0.02529 ± 0.00071 kPa
388.31 K, Metastable liquid, Closed cell (Static) method	0.02854 ± 0.00076 kPa
390.28 K, Closed cell (Static) method, Liquid	0.03201 ± 0.00081 kPa
392.25 K, Closed cell (Static) method, Liquid	0.03602 ± 0.00087 kPa
394.21 K, Closed cell (Static) method, Liquid	0.04022 ± 0.00094 kPa
396.18 K, Closed cell (Static) method, Liquid	0.04506 ± 0.001 kPa
398.13 K, Closed cell (Static) method, Liquid	0.05046 ± 0.0011 kPa
400.11 K, Closed cell (Static) method, Liquid	0.05625 ± 0.0012 kPa
402.06 K, Closed cell (Static) method, Liquid	0.0628 ± 0.0013 kPa
404.05 K, Closed cell (Static) method, Liquid	0.06988 ± 0.0014 kPa
405.99 K, Closed cell (Static) method, Liquid	0.0774 ± 0.0015 kPa
407.97 K, Closed cell (Static) method, Liquid	0.08499 ± 0.0016 kPa
409.95 K, Closed cell (Static) method, Liquid	0.0938 ± 0.0018 kPa
411.9 K, Closed cell (Static) method, Liquid	0.1045 ± 0.0019 kPa
413.88 K, Closed cell (Static) method, Liquid	0.1164 ± 0.0021 kPa
415.84 K, Closed cell (Static) method, Liquid	0.1264 ± 0.0023 kPa
417.81 K, Closed cell (Static) method, Liquid	0.1398 ± 0.0021 kPa
419.77 K, Closed cell (Static) method, Liquid	0.1534 ± 0.0022 kPa

Details	Triple point temperature [K]
[2], Crystal	387.39 ± 0.39

Brc1ccc2c(c1)Cc1cc(Br)ccc1-2 [2,7-dibromofluorene]
Details	Molar enthalpy of transition or fusion [kcal/mol]
[1]	5.43 ± 0.124

[2], Crystal
Details	vapor or sublimation pressure
361.15 K, Calculated from knudsen effusion weight loss	9.5e-05 ± 2e-05 kPa and 9.7e-05 ± 2e-05 kPa and 9.6e-05 ± 2e-05 kPa
363.14 K, Calculated from knudsen effusion weight loss	0.000119 ± 2e-05 kPa and 0.000118 ± 2e-05 kPa
365.11 K, Calculated from knudsen effusion weight loss	0.000147 ± 2.1e-05 kPa and 0.000148 ± 2.1e-05 kPa and 0.000144 ± 2.1e-05 kPa
367.16 K, Calculated from knudsen effusion weight loss	0.000177 ± 2.1e-05 kPa and 0.000179 ± 2.1e-05 kPa
369.11 K, Calculated from knudsen effusion weight loss	0.000218 ± 2.1e-05 kPa and 0.000214 ± 2.1e-05 kPa and 0.000215 ± 2.1e-05 kPa
371.1 K, Calculated from knudsen effusion weight loss	0.000267 ± 2.2e-05 kPa and 0.000261 ± 2.2e-05 kPa
373.15 K, Calculated from knudsen effusion weight loss	0.000318 ± 2.3e-05 kPa and 0.000315 ± 2.3e-05 kPa and 0.000319 ± 2.3e-05 kPa
375.12 K, Calculated from knudsen effusion weight loss	0.000392 ± 2.4e-05 kPa and 0.000388 ± 2.4e-05 kPa and 0.000382 ± 2.4e-05 kPa
377.12 K, Calculated from knudsen effusion weight loss	0.000472 ± 2.6e-05 kPa and 0.000478 ± 2.6e-05 kPa and 0.000463 ± 2.6e-05 kPa
379.15 K, Calculated from knudsen effusion weight loss	0.000556 ± 2.8e-05 kPa and 0.00056 ± 2.8e-05 kPa and 0.000563 ± 2.8e-05 kPa
381.12 K, Calculated from knudsen effusion weight loss	0.000678 ± 3.1e-05 kPa and 0.000687 ± 3.1e-05 kPa and 0.000674 ± 3.1e-05 kPa
382.23 K, Closed cell (Static) method	0.000732 ± 0.00014 kPa
383.12 K, Calculated from knudsen effusion weight loss	0.000809 ± 3.5e-05 kPa and 0.000827 ± 3.5e-05 kPa and 0.000832 ± 3.6e-05 kPa
384.26 K, Closed cell (Static) method	0.000874 ± 0.00014 kPa
386.08 K, Closed cell (Static) method	0.001029 ± 0.00014 kPa
388.21 K, Closed cell (Static) method	0.001254 ± 0.00014 kPa
390.11 K, Closed cell (Static) method	0.001472 ± 0.00015 kPa
392.14 K, Closed cell (Static) method	0.001751 ± 0.00015 kPa
394.16 K, Closed cell (Static) method	0.002104 ± 0.00016 kPa
396.08 K, Closed cell (Static) method	0.002489 ± 0.00017 kPa
398.07 K, Closed cell (Static) method	0.002922 ± 0.00018 kPa

Details	Triple point temperature [K]
[2], Crystal	438.79 ± 0.39
